In ChEMBL document CHEMBL2417538, “Antithrombotic effects of LB30870, a potent, orally active, selective and direct thrombin inhibitor, and pharmacokinetics of its prodrug” (Bioorg Med Chem Lett, 2013):
Values after ≈ are worked out from the molar mass of the structure shown. Active and inactive are the calls of the source. The calls are words filed in the database; no cut-off is given here.

Tests used:
Rattus norvegicus [1] = assay: Anticoagulant activity in Sprague-Dawley rat deep vein thrombosis model assessed as reduction in wet clot weight at 50 ug/kg, iv administered as infusion; type: functional
[2] = Aqueous solubility of the compound at pH 6.62; type: physicochemical; conditions: aqueous solution
[3] = Aqueous solubility of the compound at pH 7.35; type: physicochemical; conditions: aqueous solution
[4] = Aqueous solubility of the compound at pH 4.7; type: physicochemical; conditions: aqueous solution
[5] = Distribution coefficient, log D of the compound at pH 7 by potentiometric titration; type: physicochemical; conditions: octanol/water
[6] = Dissociation constant, pKa of the compound by potentiometric titration; type: physicochemical
[7] = Oral bioavailability in Beagle dog at 10 mg/kg; type: ADME, organism-based, Canis lupus familiaris; conditions: in vivo
[8] = Cmax in Beagle dog at 10 mg/kg, po; type: ADME, organism-based, Canis lupus familiaris; set-up: dose 10 mg/kg, route oral; conditions: in vivo
[9] = Oral bioavailability in Sprague-Dawley rat at 30 mg/kg; type: ADME, organism-based; conditions: in vivo
[10] = AUC in Sprague-Dawley rat at 30 mg/kg, po; type: ADME, organism-based; set-up: dose 30 mg/kg, route oral; conditions: plasma
[11] = Cmax in Sprague-Dawley rat at 30 mg/kg, po; type: ADME, organism-based; set-up: dose 30 mg/kg, route oral; conditions: in vivo
[12] = Oral bioavailability in monkey; type: ADME, organism-based, Macaca mulatta; conditions: rhesus monkey, in vivo
[13] = Plasma protein binding in human at 30 ug/ml by ultra-filtration method; type: ADME, cell-free; conditions: read-out: PPB (converted)
[14] = Plasma protein binding in dog at 30 ug/ml by ultra-filtration method; type: ADME, cell-free, Canis lupus familiaris; conditions: read-out: PPB (converted)
[15] = Plasma protein binding in human at 5 ug/ml by ultra-filtration method; type: ADME, cell-free; conditions: read-out: PPB (converted)
[16] = Plasma protein binding in rat at 30 ug/ml by ultra-filtration method; type: ADME, cell-free; conditions: read-out: PPB (converted)
[17] = Plasma protein binding in rat at 5 ug/ml by ultra-filtration method; type: ADME, cell-free; conditions: read-out: PPB (converted)
[18] = Plasma protein binding in dog at 5 ug/ml by ultra-filtration method; type: ADME, cell-free, Canis lupus familiaris; conditions: read-out: PPB (converted)
[19] = Plasma protein binding in human at 1 ug/ml by ultra-filtration method; type: ADME, cell-free; conditions: read-out: PPB (converted)
[20] = Plasma protein binding in rat at 1 ug/ml by ultra-filtration method; type: ADME, cell-free; conditions: read-out: PPB (converted)
[21] = Plasma protein binding in dog at 1 ug/ml by ultra-filtration method; type: ADME, cell-free, Canis lupus familiaris; conditions: read-out: PPB (converted)
Rattus norvegicus [22] = assay: Anticoagulant activity in Sprague-Dawley rat deep vein thrombosis model assessed as reduction in wet clot weight administered as iv bolus followed by infusion relative to control; type: functional, organism-based
Rattus norvegicus [23] = assay: Anticoagulant activity in Sprague-Dawley rat deep vein thrombosis model assessed as prothrombin time change at 0.25 mg/kg, iv administered as bolus and 10 ug/kg/min administered as infusion relative to control; type: functional
Rattus norvegicus [24] = assay: Anticoagulant activity in Sprague-Dawley rat deep vein thrombosis model assessed as prothrombin time change at 0.2 mg/kg, iv administered as bolus and 8 ug/kg/min administered as infusion relative to control; type: functional
Rattus norvegicus [25] = assay: Anticoagulant activity in Sprague-Dawley rat deep vein thrombosis model assessed as prothrombin time change at 0.1 mg/kg, iv administered as bolus and 4 ug/kg/min administered as infusion relative to control; type: functional
Rattus norvegicus [26] = assay: Anticoagulant activity in Sprague-Dawley rat deep vein thrombosis model assessed as prothrombin time change at 0.05 mg/kg, iv administered as bolus and 2 ug/kg/min administered as infusion relative to control; type: functional
Rattus norvegicus [27] = assay: Anticoagulant activity in Sprague-Dawley rat deep vein thrombosis model assessed as prothrombin time change at 0.025 mg/kg, iv administered as bolus and 1 ug/kg/min administered as infusion relative to control; type: functional
Rattus norvegicus [28] = assay: Anticoagulant activity in Sprague-Dawley rat deep vein thrombosis model assessed as activated partial thromboplastin time change at 0.1 mg/kg, iv administered as bolus and 4 ug/kg/min administered as infusion relative to control; type: functional
Rattus norvegicus [29] = assay: Anticoagulant activity in Sprague-Dawley rat deep vein thrombosis model assessed as activated partial thromboplastin time change at 0.05 mg/kg, iv administered as bolus and 2 ug/kg/min administered as infusion relative to control; type: functional
Rattus norvegicus [30] = assay: Anticoagulant activity in Sprague-Dawley rat deep vein thrombosis model assessed as activated partial thromboplastin time change at 0.2 mg/kg, iv administered as bolus and 8 ug/kg/min administered as infusion relative to control; type: functional
Rattus norvegicus [31] = assay: Anticoagulant activity in Sprague-Dawley rat deep vein thrombosis model assessed as activated partial thromboplastin time change at 0.025 mg/kg, iv administered as bolus and 1 ug/kg/min administered as infusion relative to control; type: functional
Rattus norvegicus [32] = assay: Anticoagulant activity in Sprague-Dawley rat deep vein thrombosis model assessed as activated partial thromboplastin time change at 0.25 mg/kg, iv administered as bolus and 10 ug/kg/min administered as infusion relative to control; type: functional
Rattus norvegicus [33] = assay: Anticoagulant activity in Sprague-Dawley rat deep vein thrombosis model assessed as wet clot weight at 0.2 mg/kg, iv administered as bolus and 8 ug/kg/min administered as infusion (reference value: 83 +/- 5.1 mg); type: functional
Rattus norvegicus [34] = assay: Anticoagulant activity in Sprague-Dawley rat deep vein thrombosis model assessed as wet clot weight at 0.1 mg/kg, iv administered as bolus and 4 ug/kg/min administered as infusion (reference value: 83 +/- 5.1 mg); type: functional
Rattus norvegicus [35] = assay: Anticoagulant activity in Sprague-Dawley rat deep vein thrombosis model assessed as wet clot weight at 0.05 mg/kg, iv administered as bolus and 2 ug/kg/min administered as infusion (reference value: 83 +/- 5.1 mg); type: functional
Plasma [36] = assay: Anticoagulant activity in rabbit plasma assessed as concentration required to double thrombin time; type: functional, Oryctolagus cuniculus
Plasma [37] = assay: Anticoagulant activity in rat plasma assessed as concentration required to double thrombin time; type: functional
Plasma [38] = assay: Anticoagulant activity in monkey plasma assessed as concentration required to double thrombin time; type: functional, Macaca mulatta
Plasma [39] = assay: Anticoagulant activity in rat plasma assessed as concentration required to double prothrombin time; type: functional
Plasma [40] = assay: Anticoagulant activity in human plasma assessed as concentration required to double thrombin time; type: functional
Plasma [41] = assay: Anticoagulant activity in monkey plasma assessed as concentration required to double prothrombin time; type: functional, Macaca mulatta
Plasma [42] = assay: Anticoagulant activity in rabbit plasma assessed as concentration required to double prothrombin time; type: functional, Oryctolagus cuniculus
Plasma [43] = assay: Anticoagulant activity in human plasma assessed as concentration required to double prothrombin time; type: functional
Plasma [44] = assay: Anticoagulant activity in rabbit plasma assessed as concentration required to double activated partial thromboplastin time; type: functional, Oryctolagus cuniculus
Plasma [45] = assay: Anticoagulant activity in rat plasma assessed as concentration required to double activated partial thromboplastin time; type: functional
Plasma [46] = assay: Anticoagulant activity in monkey plasma assessed as concentration required to double activated partial thromboplastin time; type: functional, Macaca mulatta
Plasma [47] = assay: Anticoagulant activity in human plasma assessed as concentration required to double activated partial thromboplastin time; type: functional
Prothrombin [48] = target: T1, Prothrombin (Homo sapiens, UniProt P00734); assay: Inhibition of thrombin (unknown origin) assessed as fibrin clot formation
Prothrombin [49] = target: T1, Prothrombin; assay: Inhibition of free thrombin (unknown origin) using S2238 as substrate
Prothrombin [50] = target: T1, Prothrombin; assay: Inhibition of plasma clot-bound thrombin (unknown origin) using S2238 as substrate
Prothrombin [51] = target: T1, Prothrombin; assay: Binding affinity to thrombin (unknown origin) by surface plasmon resonance analysis
Homo sapiens [52] = organism: Homo sapiens; assay: Selectivity ratio of Ki for human t-PA to Ki for human thrombin
Homo sapiens [53] = organism: Homo sapiens; assay: Selectivity ratio of Ki for human trypsin to Ki for human thrombin
Homo sapiens [54] = organism: Homo sapiens; assay: Selectivity ratio of Ki for human plasmin to Ki for human thrombin
Homo sapiens [55] = organism: Homo sapiens; assay: Selectivity ratio of Ki for human factor 10a to Ki for human thrombin
Plasminogen = Plasminogen (Homo sapiens, UniProt P00747); assay: Inhibition of human plasmin
Plasminogen, sequence (P00747 97-580 limits assumed): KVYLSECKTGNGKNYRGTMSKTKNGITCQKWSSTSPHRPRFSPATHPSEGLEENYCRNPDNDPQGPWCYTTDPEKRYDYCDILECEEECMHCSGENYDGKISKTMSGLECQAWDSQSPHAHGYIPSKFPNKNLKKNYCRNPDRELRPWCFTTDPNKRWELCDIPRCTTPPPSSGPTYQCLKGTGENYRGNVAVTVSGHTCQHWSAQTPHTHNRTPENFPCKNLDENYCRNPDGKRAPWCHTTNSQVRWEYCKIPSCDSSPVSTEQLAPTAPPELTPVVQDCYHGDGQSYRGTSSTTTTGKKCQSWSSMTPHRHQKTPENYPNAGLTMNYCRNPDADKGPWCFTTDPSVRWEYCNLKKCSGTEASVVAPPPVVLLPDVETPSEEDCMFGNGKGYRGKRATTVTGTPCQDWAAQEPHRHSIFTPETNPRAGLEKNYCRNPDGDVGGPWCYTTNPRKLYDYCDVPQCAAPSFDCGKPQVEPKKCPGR
Plasminogen, sequence (P00747 581-810 limits assumed): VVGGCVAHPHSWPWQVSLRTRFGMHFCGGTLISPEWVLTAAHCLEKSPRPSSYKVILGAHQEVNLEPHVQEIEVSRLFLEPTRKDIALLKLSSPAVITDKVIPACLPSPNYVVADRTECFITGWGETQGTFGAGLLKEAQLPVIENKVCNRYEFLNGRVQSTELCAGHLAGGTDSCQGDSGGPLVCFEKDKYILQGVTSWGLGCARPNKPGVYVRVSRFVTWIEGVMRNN

[56] = target: Tissue-type plasminogen activator (Homo sapiens, UniProt P00750); assay: Inhibition of human t-PA
Tissue-type plasminogen activator, sequence (P00750 whole entry): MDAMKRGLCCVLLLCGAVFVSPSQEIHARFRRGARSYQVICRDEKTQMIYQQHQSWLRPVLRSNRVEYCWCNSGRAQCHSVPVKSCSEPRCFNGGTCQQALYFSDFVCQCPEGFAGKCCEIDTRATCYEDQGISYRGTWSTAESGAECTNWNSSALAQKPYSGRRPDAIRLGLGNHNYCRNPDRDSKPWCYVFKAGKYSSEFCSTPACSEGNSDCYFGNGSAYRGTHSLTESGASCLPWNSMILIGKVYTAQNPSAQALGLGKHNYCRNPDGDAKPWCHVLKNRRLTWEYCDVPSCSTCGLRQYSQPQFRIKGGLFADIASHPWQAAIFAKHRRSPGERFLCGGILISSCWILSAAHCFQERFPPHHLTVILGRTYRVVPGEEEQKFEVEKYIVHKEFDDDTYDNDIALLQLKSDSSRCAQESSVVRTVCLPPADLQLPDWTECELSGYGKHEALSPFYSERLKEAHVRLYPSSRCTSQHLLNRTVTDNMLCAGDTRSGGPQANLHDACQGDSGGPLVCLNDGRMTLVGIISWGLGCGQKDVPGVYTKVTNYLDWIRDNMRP

Trypsin = Trypsin (Homo sapiens, UniProt P07477+P07478+P35030); assay: Inhibition of human trypsin; type: protein assay
Coagulation factor X = Coagulation factor X (Homo sapiens, UniProt P00742); assay: Inhibition of human factor 10a
Coagulation factor X, sequence (P00742 41-179 limits assumed): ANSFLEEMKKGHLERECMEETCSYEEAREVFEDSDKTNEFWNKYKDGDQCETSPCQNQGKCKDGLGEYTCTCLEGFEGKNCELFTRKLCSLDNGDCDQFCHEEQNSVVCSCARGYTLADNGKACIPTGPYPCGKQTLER
Coagulation factor X, sequence (P00742 235-488 limits assumed): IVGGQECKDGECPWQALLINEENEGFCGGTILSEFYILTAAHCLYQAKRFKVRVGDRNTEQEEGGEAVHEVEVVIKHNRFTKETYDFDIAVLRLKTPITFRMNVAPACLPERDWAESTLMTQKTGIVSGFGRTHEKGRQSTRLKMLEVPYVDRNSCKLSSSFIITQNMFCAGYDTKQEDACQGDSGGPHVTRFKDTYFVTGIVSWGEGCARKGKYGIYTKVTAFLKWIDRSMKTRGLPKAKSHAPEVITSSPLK

Prothrombin [57] = target: T1, Prothrombin; assay: Inhibition of human thrombin
[58] = AUC in Beagle dog at 10 mg/kg, po; type: ADME, organism-based, Canis lupus familiaris; set-up: dose 10 mg/kg, route oral; conditions: plasma
Prothrombin [59] = target: T1, Prothrombin; assay: Competitive inhibition of human thrombin at 0.25 to 1 nM by Lineweaver-Burk plot analysis

## N=C(N)c1ccc(CNC(=O)[C@@H]2CCCN2C(=O)[C@@H](NCC(=O)O)C(c2ccccc2)c2ccccc2)s1
Rattus norvegicus [1]
  ED50: 2 µg/kg/min
[2]
  solubility: 570 µg/mL (≈ 1070 µM)
[3]
  solubility: 460 µg/mL (≈ 862 µM)
[4]
  solubility: 15 mg/mL (≈ 28200 µM)
[5]
  logD: -0.088
[6]
  pKa: 1.91
[7]
  bioavailability: 43%
[8]
  Cmax: 6900 ng/mL
[9]
  bioavailability: 30%
[10]
  AUC: 9270 ng·h/mL
[11]
  Cmax: 2900 ng/mL
[12]
  bioavailability: 15%
[13]
  fraction unbound at 30 ug/ml: 0.508
[14]
  fraction unbound at 30 ug/ml: 0.216
[15]
  fraction unbound at 5 ug/ml: 0.482
[16]
  fraction unbound at 30 ug/ml: 0.182
[17]
  fraction unbound at 5 ug/ml: 0.147
[18]
  fraction unbound at 5 ug/ml: 0.177
[19]
  fraction unbound at 1 ug/ml: 0.485
[20]
  fraction unbound at 1 ug/ml: 0.124
[21]
  fraction unbound at 1 ug/ml: 0.174
Rattus norvegicus [22]
  Activity: Dose-dependent effect
Rattus norvegicus [23]
  fold change (FC): 17.2
Rattus norvegicus [24]
  fold change (FC): 9.04
Rattus norvegicus [25]
  fold change (FC): 2.07
Rattus norvegicus [26]
  fold change (FC): 1.15
Rattus norvegicus [27]
  fold change (FC): 1.03
Rattus norvegicus [28]
  fold change (FC): 3.58
Rattus norvegicus [29]
  fold change (FC): 2.77
Rattus norvegicus [30]
  fold change (FC): 5.58
Rattus norvegicus [31]
  fold change (FC): 1.68
Rattus norvegicus [32]
  fold change (FC): 4.37
Rattus norvegicus [33]
  Activity: 0 mg
Rattus norvegicus [34]
  Activity: 23 mg
Rattus norvegicus [35]
  Activity: 46 mg
Plasma [36]
  2TT: 0.019 µM
Plasma [36]; Oryctolagus cuniculus
  Activity: Dose-dependent effect
Plasma [37]
  2TT: 0.01 µM
  Activity: Dose-dependent effect
Plasma [38]
  2TT: >0.2 µM
Plasma [38]; Macaca mulatta
  Activity: Dose-dependent effect
Plasma [39]
  2PT: 1.12 µM
  Activity: Dose-dependent effect
Plasma [40]
  2TT: 0.016 µM
  Activity: Dose-dependent effect
Plasma [41]
  2PT: 0.3 µM
Plasma [41]; Macaca mulatta
  Activity: Dose-dependent effect
Plasma [42]
  2PT: 2.04 µM
Plasma [42]; Oryctolagus cuniculus
  Activity: Dose-dependent effect
Plasma [43]
  2PT: 0.66 µM
  Activity: Dose-dependent effect
Plasma [44]
  2aPTT: 1.1 µM
Plasma [44]; Oryctolagus cuniculus
  Activity: Dose-dependent effect
Plasma [45]
  2aPTT: 0.97 µM
  Activity: Dose-dependent effect
Plasma [46]
  2aPTT: 0.51 µM
Plasma [46]; Macaca mulatta
  Activity: Dose-dependent effect
Plasma [47]
  2aPTT: 0.23 µM
  Activity: Dose-dependent effect
Prothrombin [48]
  IC50: 16 nM
Prothrombin [49]
  IC50: 2.1 nM
Prothrombin [50]
  IC50: 5 nM
Prothrombin [51]
  Kd: 0.18 nM
Homo sapiens [52]
  Ratio Ki: 5210
Homo sapiens [53]
  Ratio Ki: 13.7
Homo sapiens [54]
  Ratio Ki: > 10000
Homo sapiens [55]
  Ratio Ki: > 10000
Plasminogen
  Ki: 7.43 µM
[56]
  Ki: 113 nM
Trypsin
  Ki: 0.3 nM
Coagulation factor X
  Ki: 2250 nM
Prothrombin [57]
  Ki: 0.02 nM
[58]
  AUC: 12200 ng·h/mL
Prothrombin [59]
  inhibition: Active
